Legend:
[1] = tested on: FeCl3-Induced Middle Cerebral Artery Thrombosis (MCAT) Rats; test: Cerebral infarct size (TTC staining) in FeCl3-induced middle cerebral artery thrombosis rats; assay type: in vivo, rat; settings: 0.6 mg/kg by gavage 7 days, x ± s
Excerpt: (§1) Tamura and Liu's methods were used with modifications to prepare the model. Rats were anesthetized by intraperitoneal injection of 10% chloral hydrate (0.35 g/kg); and fixed with right arm reclining. An arc incision of about 1.5 cm in length was made at the midpoint between the link of paropia and external auditory canal and temporalis was removed to expose the temporal bone. […] The surrounding-tissues were protected with a piece of plastic film. A small piece of quantitative filter paper, which had absorbed 10 μL of a 50% ferric chloride solution, was applied on this segment of middle cerebral artery. The filter paper was removed after 30 min, and local tissues were rinsed with normal saline solution, followed by suture layer by layer. Then the experimental rats were put back to rearing cage. The temperature was controlled at 24° C. For the sham-operation group, the operation procedures were the same as the model group except for the application of the ferric chloride solution.
After behavior assessment, the animals were decapitated to remove the brains. The olfactory bulb, cerebellum and lower brain stem were removed, and the remaining part was cut into 5 coronal sections below 4° C. The sections were immediately placed into a TTC staining solution (containing 1.5 m 4% TTC, 0.1 ml 1M K2HPO4 and water (balance) per 5 ml staining solution), followed by incubation in dark at 37° C. for 30 min. Then, the sections were transferred into a solution of 10% formaldehyde and incubated in dark for 24 h. After staining, the non-ischemic areas were rose red, and the infracted areas were white. The white tissues were carefully collected and weighed. The extent of cerebral infarction was expressed as a percentage (%) of infracted tissue to the weight of total brain and also to the affected side of brain.

[2] = tested on: FeCl3-Induced Middle Cerebral Artery Thrombosis (MCAT) Rats; test: Neurological symptom score in middle cerebral artery thrombosis rats; assay type: in vivo, rat; settings: 0.6 mg/kg by gavage 7 days, full score 4
Excerpt: as §1
The experimental animals were tested for behaviors 6 h and 24 h after operation according to the Sederson's method with modifications. Criteria: (1) The tail of the rat was lifted to observe the flexibility of the forelimb, with both forelimbs symmetrically stretching forward scored as 0, and occurrence of any or all of shoulder inflexion, elbow inflexion, shoulder intorsion in the contralateral fore-limb opposite to the operation side scored as 1. (2) The animal was placed on a plane, and its shoulders were pushed to the opposite direction to check resistance, Equivalency and strong resistance in both sides was scored as 0, and reduction in resistance in the contralateral side was scored as 1. (3) Both forelimbs of the rat were placed on wire gauze to observe the muscular tension. […] According to the criteria above, the full score is 4, and the higher the score is, the more serious the behavior disorder of the animal is.

Substance: Hydergine [reference compound]
- cerebral infarct size percentage to affected side [1]: 3.75 ± 1.38 %
- cerebral infarct size percentage to total brain [1]: 1.98 ± 0.72 %
- neurological symptomatic score 6 h ([2]; 6 h after operation): 1.91 ± 0.83
- neurological symptomatic score 24 h ([2]; 24 h after operation): 1.55 ± 0.69
